According to paper PMC11758220, “Identification of a Privileged Scaffold for Inhibition of Sterol Transport Proteins through the Synthesis and Ring Distortion of Diverse, Pseudo-Natural Products” (ACS Central Science, 2025):

Tests used:
Type in all cases: binding
Aster-C = molecular target: T1, Aster-C (Homo sapiens, UniProt Q8IYS0); test: Fluorescence polarisation (FP) competition with NBD-cholesterol, Aster-C; conditions: for IC50: mean of three experiments run in technical duplicates; for inhibition at 10 µM / Aster-C (FP) inhibition: single dose, Dose = 10 µM
T1 construct: -C(318-504); GST (PreScission-cleavable) (N, cleaved yes); made in house; host or cells: E. coli OverExpress C41
T1 sequence (Q8IYS0 318-504): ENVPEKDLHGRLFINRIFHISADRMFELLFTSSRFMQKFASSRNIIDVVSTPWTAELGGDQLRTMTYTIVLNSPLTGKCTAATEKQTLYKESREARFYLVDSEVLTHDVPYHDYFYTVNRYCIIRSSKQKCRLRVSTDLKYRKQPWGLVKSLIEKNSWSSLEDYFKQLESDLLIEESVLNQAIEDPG
From the text: (§1) Protein expression constructs
(§2) Human ASTER domains of Aster-A(359-547), -B(364-552) and -C(318-504) were subcloned into a pGEX-6p-2rbs vector, thus introducing the cloning artifact ‘GPLGS’.3 The pGEX-6P-1-GST-OSBP(377- […]
(§3) a gift from James H. Hurley (University of California).4 The pHIS_2His6_Thrombin_STARD4(2-205;C75S) plasmid was a gift from Young Jun Im (Chonnam National University).5 STARD5A was a gift from Nicola Burgess-Brown (Addgene plasmid #42392; http://n2t.net/addgene:42392; […]
(§4) Protein expression and purification […]
(§5) vectors including an N-terminal PreScission-cleavable glutathione S-transferase (GST)-tag were expressed in Escherichia coli (E. coli) OverExpress C41 in Terrific Broth (TB) medium for 16 h at 18 °C after the induction with 0.1 mM isopropyl β-D-1-thiogalactopyranoside (IPTG). Cells were harvested at 3500 × g for 15 minutes and lysed by sonication in buffer containing 50 mM HEPES pH 7.5, 300 mM NaCl, 10 %v/v glycerol, 5 mM dithiothreitol (DTT), 0.1 %v/v Triton X-100 and protease inhibitor mix HP plus (Serva). The lysate was purified by affinity chromatography on a GSTrap FF column (Cytiva) using an ÄKTA Start (Cytiva) in buffer containing 50 mM HEPES pH 7.5, 300 mM NaCl, 10 %v/v glycerol, 5 mM DTT and 0.01 %v/v Triton X-100. The GST-tag was cleaved overnight on the column at 4 °C. The Aster sterol binding domains were further purified by size-exclusion chromatography (SEC) on a HiLoad 16/600 Superdex 75 pg (Cytiva) in buffer containing 20 mM HEPES pH 7.5, 300 mM NaCl, 10 %v/v […]
(§6) STARD5(6-213) harboring an N-terminal His6-Tag were expressed in E. coli BL21(DE3) in Luria-Bertani Broth (LB) medium for approximately 16 h at 18 °C after induction with 0.15 mM IPTG. Cells were harvested at 3500 × g for 15 minutes and lysed by sonication in buffer containing 50 mM HEPES pH 7.5, 150 mM NaCl, 5 %v/v glycerol, 5 mM DTT, 0.1 %v/v Triton X -100 and ethylenediaminetetraacetic acid (EDTA)-free protease inhibitor cocktail (Sigma-Aldrich). The cleared lysate was purified by affinity chromatography on a Ni-NTA Superflow Cartridge (Qiagen) using an ÄKTA Start (Cytiva) in buffer containing 50 mM HEPES pH 7.5, 150 mM NaCl, 5 %v/v glycerol, 5 mM DTT. START domains were eluted by using elution buffer containing 50 mM HEPES pH 7.5, 150 mM NaCl, 5 %v/v glycerol, 5 mM DTT and 500 mM imidazole. Proteins were further purified by SEC on a HiLoad 16/600 Superdex 75 pg (Cytiva) in buffer containing 20 mM HEPES pH 7.5, 150 mM NaCl, 5 %v/v glycerol and 2 mM DTT.
(§7) The ORP domain of human OSBP(377-807) in the pGEX-6p-1 vector with an N-terminal PreScission-cleavable GST-tag was expressed in E. coli OverExpress C41 in LB medium for 16 h at 18 °C after induction with 0.1 mM IPTG. Cells were harvested at 3500 × g for 15 minutes and lysed by sonication in buffer containing 20 mM HEPES pH 7.5, 300 mM NaCl, 10 %v/v glycerol, 5 mM DTT, 0.1 %v/v Triton X-100 and EDTA-free protease inhibitor cocktail (Sigma-Aldrich). The cleared lysate was purified by affinity chromatography on a GSTrap HF column (Cytiva) using an ÄKTA Start (Cytiva) in buffer containing 20 mM HEPES pH 7.5, 300 mM NaCl, 10 %v/v glycerol, 5 mM DTT. OSBP(377 -807) was eluted by using elution buffer containing 20 mM HEPES pH 7.5, 300 mM NaCl, 10 %v/v glycerol, 5 mM DTT and 10 mM reduced glutathione. Proteins were further purified by SEC on a HiLoad 16/600 Superdex 75 pg (Cytiva) using an ÄKTA Explorer (Cytiva) in buffer containing 20 mM HEPES pH 7.5, 150 mM NaCl, 10 %v/v glycerol and 2 mM DTT.
(§8) The ORP domains of human ORP1(534-950) in pET24b(+) and ORP2(49-480) in the pET24b(+) vector including an N-terminal His6-Tag were expressed in E. coli BL21(DE3) in TB medium for approximately 16 h at 18 °C after induction with 0.1 mM IPTG. Cells were collected at 3500 × g for 15 minutes and lysed by sonification in buffer containing 10 mM Tris-HCl pH 8, 300 mM NaCl, 5 % glycerol, 2 mM DTT, 0.1 % Triton X-100 and EDTA-free protease inhibitor cocktail (Sigma-Aldrich). The cleared […]

STARD1 = molecular target: T2, STARD1 (Homo sapiens, UniProt P49675); test: Fluorescence polarisation (FP) competition with NBD-cholesterol, STARD1; conditions: for IC50: mean of three experiments run in technical duplicates; for inhibition at 10 µM / STARD1 (FP) inhibition: single dose, Dose = 10 µM
T2 construct: STARD1(66-284); made in house; host or cells: E. coli BL21(DE3)
T2 sequence (P49675 66-284): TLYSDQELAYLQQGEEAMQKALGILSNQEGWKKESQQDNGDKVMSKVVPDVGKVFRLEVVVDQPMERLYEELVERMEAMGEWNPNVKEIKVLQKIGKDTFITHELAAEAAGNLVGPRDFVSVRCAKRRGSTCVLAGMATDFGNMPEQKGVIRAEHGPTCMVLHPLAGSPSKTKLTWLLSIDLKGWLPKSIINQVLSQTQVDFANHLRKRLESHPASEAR

STARD5 = molecular target: T3, STARD5 (Homo sapiens, UniProt Q9NSY2); test: Differential scanning fluorimetry (DSF), STARD5; conditions: for ΔTm at 10 µM / STARD5 (DSF) ΔTm: single dose, Dose = 10 µM; for Kd: apparent Kd, mean of three experiments run in technical duplicates, read-out: STARD5 Kd,app (DSF); for STARD5 (DSF) ΔTmmax: maximal thermal shift
T3 construct: STARD5(6-213); host or cells: E. coli BL21(DE3)
T3 sequence (Q9NSY2 6-213): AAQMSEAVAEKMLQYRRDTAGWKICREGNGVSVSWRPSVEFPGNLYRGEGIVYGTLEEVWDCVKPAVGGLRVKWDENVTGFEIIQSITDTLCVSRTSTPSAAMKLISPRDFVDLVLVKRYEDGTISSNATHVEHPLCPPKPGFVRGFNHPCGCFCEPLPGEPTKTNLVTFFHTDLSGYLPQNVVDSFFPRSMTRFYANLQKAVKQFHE
From the text: as §1, §2, §3, §4, §5, §6, §7, §8

Structure (SMILES) | IC50 (Aster-C) | inhibition at 10 µM (Aster-C) | IC50 (STARD1) | inhibition at 10 µM (STARD1) | ΔTm at 10 µM (STARD5) | Kd (STARD5) | STARD5 (DSF) ΔTmmax (STARD5) | Aster-C (FP) inhibition (Aster-C) | STARD1 (FP) inhibition (STARD1) | STARD5 (DSF) ΔTm (STARD5) | ΔTm at 100 µM (STARD5; at 100 μM, read-out: STARD5 ΔTm^max)
C[C@]12CC[C@@H]3C[C@H]1CC[C@@]21C(=Nc2ccc(Br)cc21)O3 (racemic) [Compound 15b] | > 80 µM | -1.6% | > 80 µM | 27% | 0.5 °C | – | – | – | – | – | –
CC12CCC3CC1CCC21C(=Nc2ccc(N4CCOCC4)cc21)O3 (racemic) [Compound 19a] | > 80 µM | -5% | > 80 µM | 20% | 1.8 °C | > 30 µM | 3.7 °C | – | – | – | –
CC12CCC3CC1CCC21C(=Nc2ccc(Br)cc21)O3 (single isomer, unassigned; (+)) [(+)-15b] | > 80 µM | 0% | > 80 µM | 7% | -0.0628 °C | > 100 µM | 1.1 °C | – | – | – | –
CC12CCC3CC1CCC21C(=Nc2ccc(N4CCOCC4)cc21)O3 (single isomer, unassigned; (+)) [(+)-19a] | > 80 µM | – | > 80 µM | – | – | > 100 µM | 1.7 °C | -0.8% | 12% | 0.32 °C | –
CC12CCC3CC1CCC21C(=Nc2ccc(N4CCOCC4)cc21)O3 (single isomer, unassigned; (-)) [(−)-19a] | > 80 µM | – | > 80 µM | – | – | > 30 µM | 5.2 °C | -1.6% | 30% | 3.3 °C | 4.7 °C
C[C@@]12CC[C@H]3C[C@@H]1CC[C@]21C(=Nc2ccc(Br)cc21)O3 [(−)-15b] | > 80 µM | -0.8% | 42.6 µM | 38% | 0.4 °C | > 100 µM | 1.3 °C | – | – | – | –
CC(C)Oc1ccc(C(=O)Nc2nc3c(s2)CN(C(=O)OC(C)(C)C)CC3)cc1 [Autogramin-2, reference compound] | > 80 µM | – | > 80 µM | – | – | > 30 µM | – | -1.6% | 22% | 0.211 °C | –
Cc1c2c(nc3ccccc13)[C@@]1(C)CC[C@@H](O)C[C@H]1CC2 [Compound 2a] | – | -2.4% | – | 30% | 0.4 °C | – | – | – | – | – | –
C[C@]12CC[C@@H](O)C[C@H]1CCc1c2nc2ccccc2c1-c1ccccc1 [Compound 2b] | – | – | – | – | – | – | – | -5.6% | -3.33% | 0.0879 °C | –
Cc1c2c(nc3cc(Br)ccc13)[C@@]1(C)CC[C@@H](O)C[C@H]1CC2 [Compound 2c] | – | – | – | – | – | – | – | -1.6% | 70% | 0.543 °C | –
C[C@]12CC[C@@H](O)C[C@H]1CCc1c2nc2ccccc2c1-c1ccc(F)cc1 [Compound 2d] | – | -2.4% | – | -8% | 0.0936 °C | – | – | – | – | – | –
C[C@]12CC[C@@H](O)C[C@H]1CCc1c2nc2ccc(Cl)cc2c1-c1ccccc1 [Compound 2e] | – | – | – | – | – | – | – | -5% | -8% | 0.221 °C | –
C[C@]12CC[C@@H](O)C[C@H]1CCc1c2[nH]c2ncccc12 [Compound 3] | – | -3.2% | – | -3.33% | 0.149 °C | – | – | – | – | – | –
C[C@]12CC[C@@H](O)C[C@H]1CCC[C@]21Nc2ccccc2-n2cccc21 [Compound 4] | – | – | – | 35% | 0.138 °C | – | – | -5.6% | 20% | 0.276 °C | –
C[C@]12CC[C@@H](O)C[C@H]1CCC[C@]21NC(=O)c2ccccc2N1 [Compound 5a] | – | 0% | – | -1.67% | 0.0253 °C | – | – | -4% | 1.67% | 0.0773 °C | –
C[C@]12CC[C@@H](O)C[C@H]1CCC[C@]21NC(=O)c2ccc(F)cc2N1 [Compound 5b] | – | -1.6% | – | 3.33% | -0.128 °C | – | – | -4% | 1.67% | 0.158 °C | –
COc1ccc2c(c1)C(=O)N[C@]1(CCC[C@@H]3C[C@H](O)CC[C@@]31C)N2 [Compound 5c] | – | – | – | 5% | 0.117 °C | – | – | -3.2% | -3.33% | 0.0259 °C | –
